The numbers were not newly measured in patent US6717017B2, “Total synthesis of antitumor acylfulvenes” (The Regents of the University of California, priority 1996, dated 2004), which cites them from elsewhere.

In data set [1] the test system is skin cancers. Particulars: in vivo.
Data set [2] deals with MV 522 metastatic lung carcinoma xenografts. As to conditions: MV 522 metastatic lung carcinoma xenografts in nude mice.
The test system of data set [3] is breast (MX-1).
For data set [4], the system named is colon (HT-29).

Regarding `CC1=C(CO)C2=C(C)C3(CC3)[C@@](C)(O)C(=O)C2=C1` [HMAF, hydroxymethylacylfulvene], the “activity against skin cancers” value in data set [1] was “outstanding activity”. Also, the tumor regression entry in data set [2] is “complete tumor regression was observed in all animals”. Also, the “activity against breast (MX-1) cancer” value in data set [3] is listed as “outstanding activity”. For the same compound, in data set [4], the “activity against colon (HT-29) cancer” value is listed as “outstanding activity”.
